From PubChem BioAssay (NCI)
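Results reflect a 48-hour exposure of cells in 96-well plates to compound at five concentrations. TGI denotes the concentration required for complete inhibition of growth.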

Tests used:
Test in all cases: NCI anticancer screen, dose series, 48 h
[1] = tested on: SNB-78 CNS
[2] = tested on: RPMI-8226 leukemia
[3] = tested on: DMS 273 small cell lung
[4] = tested on: UO-31 renal
[5] = tested on: BT-549 breast
[6] = tested on: KM20L2 colon
[7] = tested on: M19-MEL melanoma
[8] = tested on: LXFL 529 NSCLC
[9] = tested on: DLD-1 colon
[10] = tested on: M14 melanoma
[11] = tested on: RXF-631 renal
[12] = tested on: HOP-18 NSCLC
[13] = tested on: DMS 114 small cell lung
[14] = tested on: NCI-H23 lung
[15] = tested on: XF 498 CNS

Structure (SMILES): CCCCCCCCCCCCCCCCCCN(C)CC(COP(=O)([O-])OCC[N+](C)(C)C)OC (stereo not drawn)
- TGI [1]: 21.3 µM
- TGI [2]: 18.6 µM
- TGI [3]: 5.4 µM
- TGI [4]: 48.8 µM
- TGI [5]: > 100 µM
- TGI [6]: 4.16 µM
- TGI [7]: 13.1 µM
- TGI [8]: 21.6 µM
- TGI [9]: 17.3 µM
- TGI [10]: 29.6 µM
- TGI [11]: 43.7 µM
- TGI [12]: 32.5 µM
- TGI [13]: 20.5 µM
- TGI [14]: 49.3 µM
- TGI [15]: 29.9 µM

Structure (SMILES): O=C1c2ccc(O)c(O)c2C(=O)c2c(O)ccc(O)c21
- TGI [1]: > 100 µM
- TGI [2]: > 100 µM
- TGI [3]: 61.7 µM
- TGI [4]: 42.8 µM
- TGI [6]: 70.8 µM
- TGI [7]: > 100 µM
- TGI [8]: > 100 µM
- TGI [9]: > 100 µM
- TGI [10]: 54 µM
- TGI [13]: 32.6 µM
- TGI [14]: 93.8 µM

Structure (SMILES): O=C1C(c2c(O)[nH]c3ccc(Br)cc23)=Nc2ccccc21
- TGI [2]: > 100 µM
- TGI [4]: 12.3 µM
- TGI [5]: 41 µM
- TGI [10]: 32.4 µM
- TGI [14]: 40.1 µM

Structure (SMILES): C/C(=N\NC(=S)NCCCNC(=S)N/N=C(\C)c1ccccn1)c1ccccn1
- TGI [2]: > 100 µM
- TGI [4]: > 54.1 µM
- TGI [5]: 21.9 µM
- TGI [10]: 4.08 µM
- TGI [14]: > 54.4 µM

Structure (SMILES): CCOC(=O)CCC(NC(=O)c1ccc(OCc2ccc3nc(-c4ccccc4)c(Cl)nc3c2)cc1)C(=O)OCC (stereo not drawn)
- TGI [2]: > 31.6 µM
- TGI [4]: > 31.6 µM
- TGI [5]: > 31.6 µM
- TGI [10]: > 31.6 µM
- TGI [14]: > 31.6 µM

Structure (SMILES): CC(C)(C)c1cc(O)ccc1O
- TGI [2]: > 93.7 µM
- TGI [4]: > 72.8 µM
- TGI [5]: > 100 µM
- TGI [10]: > 100 µM
- TGI [14]: > 100 µM

Structure (SMILES): CC(=O)c1cc2ccccc2oc1=O
- TGI [2]: > 100 µM
- TGI [4]: > 100 µM
- TGI [5]: > 100 µM
- TGI [10]: > 100 µM
- TGI [14]: > 100 µM

Structure (SMILES): Oc1ccc2c(c1)-c1c(c3ccccc3n1CCN1CCOCC1)CC2
- TGI [2]: > 100 µM
- TGI [4]: > 100 µM
- TGI [5]: > 100 µM
- TGI [10]: 88 µM
- TGI [14]: 69.1 µM

Structure (SMILES): CCOC(=O)c1ccc(NCC#CCN2CCCCC2)cc1
- TGI [2]: > 100 µM
- TGI [4]: > 100 µM
- TGI [5]: > 100 µM
- TGI [10]: > 100 µM
- TGI [14]: > 100 µM

Structure (SMILES): O=C(NNC(=S)NC1CCCCC1)c1csc(NC(=S)NC2CCCCC2)n1
- TGI [2]: 46.7 µM
- TGI [4]: 11.2 µM
- TGI [5]: 21.1 µM
- TGI [10]: 16.1 µM
- TGI [14]: 45.2 µM

Structure (SMILES): CCOC(=O)C(SCCO)C(C(=O)OCC)n1ccc(=O)[nH]c1=O (stereo not drawn)
- TGI [2]: 47.8 µM
- TGI [4]: > 100 µM
- TGI [5]: > 100 µM
- TGI [10]: > 90.5 µM
- TGI [14]: > 100 µM

Structure (SMILES): O=c1/c(=C/c2ccc(-c3ccc(Cl)cc3Cl)o2)sc2n1[C@@H](c1ccc(Cl)cc1)C=C(c1cc(F)c(Cl)cc1Cl)N=2
- TGI [2]: > 100 µM
- TGI [4]: > 100 µM
- TGI [5]: > 100 µM
- TGI [10]: > 100 µM
- TGI [14]: > 100 µM

Structure (SMILES): Nn1c(Cc2ccc([N+](=O)[O-])cc2)n[nH]c1=O
- TGI [2]: > 100 µM
- TGI [4]: > 100 µM
- TGI [5]: > 100 µM
- TGI [10]: > 100 µM
- TGI [14]: > 100 µM

Structure (SMILES): BrC(c1cccc2ccccc12)c1cccc2ccccc12
- TGI [2]: > 100 µM
- TGI [4]: > 100 µM
- TGI [5]: 39.3 µM
- TGI [10]: 37.6 µM
- TGI [14]: 43 µM

Structure (SMILES): COc1cc(Cc2nccc3cc(OC)c(OC)cc23)c(N=NN(C)C)cc1OC
- TGI [2]: 39.7 µM
- TGI [4]: 44.8 µM
- TGI [5]: 44 µM
- TGI [10]: 39.3 µM
- TGI [14]: 48.7 µM

Structure (SMILES): CCCCCCCCCCNC(=O)CCC(NC(=O)c1ccc(N(C)Cc2cnc3nc(N)nc(N)c3n2)cc1)C(=O)NCCCCCCCCCC (stereo not drawn)
- TGI [2]: > 70.4 µM
- TGI [4]: > 100 µM
- TGI [5]: 26.3 µM
- TGI [10]: 57.7 µM
- TGI [14]: 54.4 µM

Structure (SMILES): COc1ccc(-c2cc3[nH]nc(N)c3c(=O)o2)cc1
- TGI [1]: > 100 µM
- TGI [2]: > 100 µM
- TGI [3]: > 100 µM
- TGI [4]: > 100 µM
- TGI [6]: > 100 µM
- TGI [8]: > 100 µM
- TGI [9]: > 100 µM
- TGI [10]: > 100 µM
- TGI [12]: > 100 µM
- TGI [13]: > 100 µM
- TGI [14]: > 100 µM
- TGI [15]: > 100 µM

Structure (SMILES): CC(=O)Nc1ccc(C2SCc3nc4ccccc4n32)cc1 (stereo not drawn)
- TGI [2]: > 100 µM
- TGI [4]: > 100 µM
- TGI [5]: > 74.6 µM
- TGI [10]: > 100 µM
- TGI [14]: > 100 µM

Structure (SMILES): COc1ccccc1C(=O)c1c(NCc2ccccc2)c(=O)c1=O
- TGI [2]: > 100 µM
- TGI [4]: > 100 µM
- TGI [5]: > 100 µM
- TGI [10]: > 100 µM
- TGI [14]: > 100 µM
